Test results: ChEMBL document CHEMBL1208686, “Synthesis and antileishmanial activity of piperoyl-amino acid conjugates” (Eur J Med Chem, 2010)

Assays:
Leishmania donovani [1] = experiment: Antileishmanial activity against Leishmania donovani amastigotes after 48 hrs by MTT assay; format: functional, organism-based
Leishmania donovani [2] = experiment: Antileishmanial activity against Leishmania donovani promastigotes after 48 hrs by MTT assay; format: functional, organism-based
PBMC [3] = experiment: Cytotoxicity against human PBMC at 2 times IC50 concentration after 48 hrs by MTT assay; format: cell-based
PBMC [4] = experiment: Cytotoxicity against human PBMC at IC50 concentration after 48 hrs by MTT assay; format: cell-based
Leishmania donovani [5] = experiment: Antileishmanial activity against Leishmania donovani infected in golden Syrian hamsters assessed as reduction of spleen parasitic burden at 12.5 mg/kg, po administered 20 days after infection for 10 days relative to control; format: functional; design: scale not given: the % may be the effect or the level left
Leishmania donovani [6] = experiment: Antileishmanial activity against Leishmania donovani infected in golden Syrian hamsters assessed as reduction of spleen weight at 12.5 mg/kg, po administered 20 days after infection for 10 days (reference value: 503 +/- 34 mg); format: functional
Leishmania donovani [7] = experiment: Antileishmanial activity against Leishmania donovani infected in golden Syrian hamsters assessed as reduction of spleen weight at 12.5 mg/kg, po administered 20 days after infection for 10 days relative to control; format: functional; design: scale not given: the % may be the effect or the level left
Leishmania donovani [8] = experiment: Antileishmanial activity against Leishmania donovani infected in golden Syrian hamsters assessed as reduction of spleen weight at 250 mg/kg, ip administered 20 days after infection for 10 days relative to control; format: functional; design: scale not given: the % may be the effect or the level left; conditions: route intraperitoneal
Leishmania donovani [9] = experiment: Antileishmanial activity against Leishmania donovani infected in golden Syrian hamsters assessed as reduction of spleen weight at 250 mg/kg, ip administered 20 days after infection for 10 days (reference value: 503 +/- 34 mg); format: functional; conditions: route intraperitoneal
Leishmania donovani [10] = experiment: Antileishmanial activity against Leishmania donovani infected in golden Syrian hamsters assessed as reduction of spleen parasitic burden at 250 mg/kg, ip administered 20 days after infection for 10 days relative to control; format: functional; design: scale not given: the % may be the effect or the level left; conditions: route intraperitoneal

| Compound | IC50 (Leishmania donovani [1]) | IC50 (Leishmania donovani [2]) | Activity (PBMC [3]) | Activity (PBMC [4]) | Activity (Leishmania donovani [5]) | Activity (Leishmania donovani [6]) | Activity (Leishmania donovani [7]) | Activity (Leishmania donovani [8]) | Activity (Leishmania donovani [9]) | Activity (Leishmania donovani [10]) |
| --- | --- | --- | --- | --- | --- | --- | --- | --- | --- | --- |
| O=C(/C=C/C=C/c1ccc2c(c1)OCO2)NC(Cc1c[nH]c2ccccc12)C(=O)O (stereo unspecified) | 236 µM | 1020 µM | 10% | 3.6% |  |  |  |  |  |  |
| COC(=O)[C@@H](N)CCSC | 1900 µM | 1930 µM | 7.3% | 1.5% |  |  |  |  |  |  |
| CCCCCCCCCCCCCCCCOP(=O)([O-])OCC[N+](C)(C)C [MILTEFOSINE] | 18 µM | 33 µM | 35% | 29% | 87% | 287 mg | 43% |  |  |  |
| COC(=O)C(NC(=O)CCCCc1ccc2c(c1)OCO2)C(C)C (stereo unspecified) | 240 µM | 722 µM | 7.7% | 4.5% |  |  |  |  |  |  |
| COC(=O)[C@@H](N)C(C)C | 1760 µM | 2350 µM | 6% | 4% |  |  |  |  |  |  |
| CC(C)C(NC(=O)/C=C/C=C/c1ccc2c(c1)OCO2)C(=O)O (stereo unspecified) | 310 µM | 1030 µM | 9% | 5.5% |  |  |  |  |  |  |
| COC(=O)C(Cc1ccc(O)cc1)NC(=O)/C=C/C=C/c1ccc2c(c1)OCO2 (stereo unspecified) | 210 µM | 791 µM | 6% | 3.5% |  |  |  |  |  |  |
| O=C(/C=C/C=C/c1ccc2c(c1)OCO2)N1CCCCC1 [PIPERINE] | 752 µM | 2560 µM | 10% | 7% |  |  |  |  |  |  |
| COC(=O)C(Cc1ccccc1)NC(=O)/C=C/C=C/c1ccc2c(c1)OCO2 (stereo unspecified) | 197 µM | 834 µM | 7% | 4% |  |  |  | 30% | 353 mg | 35% |
| COC(=O)C(NC(=O)/C=C/C=C/c1ccc2c(c1)OCO2)C(C)C (stereo unspecified) | 75 µM | 875 µM | 3.8% | 3% |  |  |  |  | 516 mg | 24% |
| COC(=O)C(CCSC)NC(=O)CCCCc1ccc2c(c1)OCO2 (stereo unspecified) | 221 µM | 607 µM | 5% | 3% |  |  |  |  |  |  |
| COC(=O)C(Cc1ccccc1)NC(=O)CCCCc1ccc2c(c1)OCO2 (stereo unspecified) | 212 µM | 669 µM | 7.2% | 5.5% |  |  |  |  |  |  |
| COC(=O)C(Cc1c[nH]c2ccccc12)NC(=O)/C=C/C=C/c1ccc2c(c1)OCO2 (stereo unspecified) | 119 µM | 855 µM | 5.2% | 3% |  |  |  |  |  |  |
| COC(=O)[C@@H](N)Cc1c[nH]c2ccccc12 [TRYPTOPHAN METHYL ESTER] | 1420 µM | 1370 µM | 5.3% | 1.8% |  |  |  |  |  |  |
| COC(=O)C(Cc1ccc(O)cc1)NC(=O)CCCCc1ccc2c(c1)OCO2 (stereo unspecified) | 202 µM | 536 µM | 7.6% | 5% |  |  |  |  |  |  |
| COC(=O)C(Cc1c[nH]c2ccccc12)NC(=O)CCCCc1ccc2c(c1)OCO2 (stereo unspecified) | 176 µM | 473 µM | 5% | 2.5% |  |  |  |  |  |  |
| O=C(O)/C=C/C=C/c1ccc2c(c1)OCO2 [PIPERIC ACID] | 395 µM | 1760 µM | 8% | 4.5% |  |  |  |  |  |  |
| O=C(/C=C/C=C/c1ccc2c(c1)OCO2)NC(Cc1ccc(O)cc1)C(=O)O (stereo unspecified) | 249 µM | 761 µM | 6% | 4% |  |  |  |  |  |  |
| COC(=O)C(CCSC)NC(=O)/C=C/C=C/c1ccc2c(c1)OCO2 (stereo unspecified) | 168 µM | 823 µM | 7.5% | 4% |  |  |  |  |  |  |
| CSCCC(NC(=O)/C=C/C=C/c1ccc2c(c1)OCO2)C(=O)O (stereo unspecified) | 237 µM | 1310 µM | 7.7% | 1.8% |  |  |  |  |  |  |
| O=C(/C=C/C=C/c1ccc2c(c1)OCO2)NC(Cc1ccccc1)C(=O)O (stereo unspecified) | 256 µM | 927 µM | 8.5% | 1.2% |  |  |  |  |  |  |
| COC(=O)[C@@H](N)Cc1ccc(O)cc1 [TYROSINE METHYL ESTER] | 1400 µM | 2090 µM | 5% | 0.3% |  |  |  |  |  |  |
